# Data reported in patent US20240091209A1, “COMPOSITIONS AND METHODS FOR TREATMENT OF HIDRADENITIS SUPPURATIVA” (SUZHOU KINTOR PHARMACEUTICALS, INC., priority 2021, published 2024).
# “Also recorded” adds a separate entry of the source.
# What was measured:
# androgen receptor (AR) = target: T1, androgen receptor (AR) (Homo sapiens, UniProt P10275); settings: clinical evidence, no details given; cited from earlier work
# T1 sequence (P10275 1-920): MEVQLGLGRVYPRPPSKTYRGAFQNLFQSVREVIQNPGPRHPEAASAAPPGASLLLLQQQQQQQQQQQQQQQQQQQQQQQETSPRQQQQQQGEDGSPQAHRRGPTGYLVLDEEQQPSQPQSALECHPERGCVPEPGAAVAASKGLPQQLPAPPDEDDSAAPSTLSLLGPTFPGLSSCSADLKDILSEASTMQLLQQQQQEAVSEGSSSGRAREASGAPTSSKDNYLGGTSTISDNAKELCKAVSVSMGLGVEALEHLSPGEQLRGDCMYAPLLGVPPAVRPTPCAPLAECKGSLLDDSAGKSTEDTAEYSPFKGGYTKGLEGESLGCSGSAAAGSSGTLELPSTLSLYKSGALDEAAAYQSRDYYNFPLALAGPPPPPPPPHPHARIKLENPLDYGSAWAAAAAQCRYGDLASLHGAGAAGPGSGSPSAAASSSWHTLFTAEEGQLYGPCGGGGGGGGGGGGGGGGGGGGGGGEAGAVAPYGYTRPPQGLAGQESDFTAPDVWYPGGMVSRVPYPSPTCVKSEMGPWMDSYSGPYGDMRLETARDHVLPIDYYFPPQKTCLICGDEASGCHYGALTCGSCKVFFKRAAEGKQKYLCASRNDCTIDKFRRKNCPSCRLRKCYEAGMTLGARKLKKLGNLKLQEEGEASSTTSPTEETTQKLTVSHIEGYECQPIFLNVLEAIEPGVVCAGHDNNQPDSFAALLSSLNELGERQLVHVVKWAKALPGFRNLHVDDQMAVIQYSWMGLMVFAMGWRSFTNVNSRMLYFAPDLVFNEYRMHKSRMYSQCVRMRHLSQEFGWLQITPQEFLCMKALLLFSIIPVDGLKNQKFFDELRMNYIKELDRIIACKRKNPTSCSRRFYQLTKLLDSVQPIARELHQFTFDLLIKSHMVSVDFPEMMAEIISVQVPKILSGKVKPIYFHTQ
# [1] = Adverse events in the Proxalutamide HS study; format: in vivo, human; settings: 200 mg q.d. for 7 days; 2 subjects
# Procedure: (§1) Overview: Four subjects, 2 males and 2 females, were recruited to the Proxalutamide HS study. At baseline (day 0) all subjects were diagnosed by a dermatologist with HS Hurley Stage 3. All subjects presented HS in the axilla region. Two subjects (1 male and 1 female) were treated for 7 days with Proxalutamide monotherapy 200 mg daily and two subjects were treated for 7 days with Proxalutamide placebo monotherapy 200 mg daily
# (§2) Results: Following 7 days of treatment with Proxalutamide 200 mg q.d., all four subjects returned to the clinic to be assessed by a dermatologist. On day 7 both subjects treated with Proxalutamie were diagnosed by a dermatologist with HS Hurley Stage 1. […] On day 7 both subjects treated with Proxalutamie placebo were diagnosed by a dermatologist with HS Hurley Stage 3.
# [2] = men and women; cited from earlier work
# [3] = test system: hidradenitis suppurativa (HS); test: Study of Proxalutamide for the treatment of HS (Hurley Stage after 7 days); format: in vivo, human
# Procedure: as §1
# Efficacy Endpoint: Hurley Stage following 7 days of treatment.
# Formula: Proxalutamie 200 mg q.d.
# as §2
# [4] = test system: hidradenitis suppurativa (HS); settings: 24 female patients; ethinyloestradiol 50 μg + cyproterone acetate 50 mg vs ethinyloestradiol 50 μg + norgestrel 500 μg; positive benefits in both groups; cited from earlier work
SMILES,Effect on AR expression and activity (androgen receptor (AR)),Adverse events reported by the subjects [1],Safety in Phase II studies [2],"HS Hurley Stage diagnosed by a dermatologist on day 7 ([3]; 200 mg q.d. monotherapy for 7 days, 2 subjects (1 male, 1 female), axilla, baseline Hurley Stage 3, placebo subjects stayed at Stage 3)","Severity of HS compared to the placebo ([3]; within 7 days, 200 mg q.d.)",Benefit in HS versus ethinyloestradiol plus norgestrel [4]
"CC1(C)C(=O)N(c2ccc(C#N)c(C(F)(F)F)c2F)C(=S)N1c1ccc(CCCc2ncco2)nc1 [Proxalutamide, proxalutamide]",lowers AR expression and activity,No adverse events; also recorded: without any adverse events,safe in both men and women,1,reduced the severity of HS,–
CC(=O)O[C@]1(C(C)=O)CC[C@H]2[C@@H]3C=C(Cl)C4=CC(=O)[C@@H]5C[C@@H]5[C@]4(C)[C@H]3CC[C@@]21C [cyproterone acetate],–,–,–,–,–,no statistically significant advantage
